Test results reported in ChEMBL document CHEMBL3351282, “An update on therapeutic opportunities offered by cancer glycolytic metabolism” (Bioorg Med Chem Lett, 2014).

What was measured:
Pyruvate kinase PKM [1] = target: T1, Pyruvate kinase PKM (Homo sapiens, UniProt P14618); assay: Activation of pyruvate kinase PKM2 (unknown origin)
[2] = Antiproliferative activity against human MIAPaCa2 cells assessed as inhibition of cell proliferation; assay type: functional, cell-based; details: MIA PaCa-2
[3] = target: 6-phosphofructo-2-kinase/fructose-2,6-bisphosphatase 3 (Homo sapiens, UniProt Q16875); assay: Inhibition of PFKFB3 (unknown origin)
6-phosphofructo-2-kinase/fructose-2,6-bisphosphatase 3, sequence (Q16875 whole entry): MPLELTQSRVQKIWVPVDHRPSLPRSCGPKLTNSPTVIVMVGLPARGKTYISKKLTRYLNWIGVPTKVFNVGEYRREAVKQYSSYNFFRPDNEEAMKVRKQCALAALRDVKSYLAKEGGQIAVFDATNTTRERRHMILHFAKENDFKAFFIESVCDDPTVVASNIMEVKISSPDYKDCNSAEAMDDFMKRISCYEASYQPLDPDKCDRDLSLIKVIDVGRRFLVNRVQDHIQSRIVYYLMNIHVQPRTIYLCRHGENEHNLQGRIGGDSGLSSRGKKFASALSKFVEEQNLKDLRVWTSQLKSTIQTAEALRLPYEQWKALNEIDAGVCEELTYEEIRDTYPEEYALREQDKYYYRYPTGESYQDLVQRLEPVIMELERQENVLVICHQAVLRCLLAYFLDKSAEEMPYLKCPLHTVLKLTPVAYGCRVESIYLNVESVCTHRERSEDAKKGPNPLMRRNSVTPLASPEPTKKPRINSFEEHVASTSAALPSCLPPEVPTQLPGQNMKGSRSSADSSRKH

Alpha-enolase = Alpha-enolase (Homo sapiens, UniProt P06733); assay: Inhibition of ENO1 (unknown origin)
Alpha-enolase, sequence (P06733 whole entry): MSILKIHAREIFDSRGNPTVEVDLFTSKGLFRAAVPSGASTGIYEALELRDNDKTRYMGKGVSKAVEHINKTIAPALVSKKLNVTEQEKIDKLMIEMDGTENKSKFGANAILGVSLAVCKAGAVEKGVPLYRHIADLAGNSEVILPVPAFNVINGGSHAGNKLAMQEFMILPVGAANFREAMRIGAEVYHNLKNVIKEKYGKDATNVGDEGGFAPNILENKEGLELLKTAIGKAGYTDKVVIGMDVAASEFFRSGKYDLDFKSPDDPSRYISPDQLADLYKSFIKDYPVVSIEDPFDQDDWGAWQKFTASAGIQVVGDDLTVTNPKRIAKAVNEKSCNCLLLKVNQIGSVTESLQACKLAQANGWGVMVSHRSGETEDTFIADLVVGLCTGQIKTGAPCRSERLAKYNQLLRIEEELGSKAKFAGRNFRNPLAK

Hexokinase-2 = target: T2, Hexokinase-2 (Homo sapiens, UniProt P52789); assay: Inhibition of hexokinase 2 (unknown origin)
T2 sequence (P52789 whole entry): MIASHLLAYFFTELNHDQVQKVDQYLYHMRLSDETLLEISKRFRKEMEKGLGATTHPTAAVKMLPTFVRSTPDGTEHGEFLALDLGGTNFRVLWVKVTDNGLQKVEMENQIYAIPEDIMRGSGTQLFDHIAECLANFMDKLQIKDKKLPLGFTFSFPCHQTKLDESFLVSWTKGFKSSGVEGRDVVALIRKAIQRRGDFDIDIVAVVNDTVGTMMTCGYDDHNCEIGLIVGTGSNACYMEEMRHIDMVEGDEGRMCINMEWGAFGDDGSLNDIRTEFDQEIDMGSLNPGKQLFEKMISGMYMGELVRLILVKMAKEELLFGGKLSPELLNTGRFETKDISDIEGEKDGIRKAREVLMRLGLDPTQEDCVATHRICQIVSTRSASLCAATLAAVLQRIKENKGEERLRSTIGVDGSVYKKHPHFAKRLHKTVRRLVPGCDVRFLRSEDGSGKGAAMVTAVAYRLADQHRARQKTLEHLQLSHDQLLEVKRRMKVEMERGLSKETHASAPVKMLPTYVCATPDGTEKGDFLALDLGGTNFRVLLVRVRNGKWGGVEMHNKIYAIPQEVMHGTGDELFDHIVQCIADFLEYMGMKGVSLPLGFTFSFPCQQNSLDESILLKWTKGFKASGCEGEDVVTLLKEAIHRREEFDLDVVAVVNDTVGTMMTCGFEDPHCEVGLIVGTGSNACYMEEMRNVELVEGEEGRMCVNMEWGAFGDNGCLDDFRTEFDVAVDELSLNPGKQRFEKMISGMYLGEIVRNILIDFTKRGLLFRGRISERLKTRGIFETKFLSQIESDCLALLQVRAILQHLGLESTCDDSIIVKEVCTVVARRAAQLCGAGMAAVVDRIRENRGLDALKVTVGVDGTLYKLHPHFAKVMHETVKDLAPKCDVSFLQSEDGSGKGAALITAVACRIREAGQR

[4] = Growth inhibition of VHL-positive human RCC4/VHL cells; assay type: functional, cell-based
[5] = Growth inhibition of VHL deficient human RCC4 cells; assay type: functional, cell-based
Pyruvate kinase PKM [6] = target: T1, Pyruvate kinase PKM; assay: Activation of pyruvate kinase PKM2 in human A549 cells; assay type: cell-based
[7] = target: T3, Monocarboxylate transporter 1 (Homo sapiens, UniProt P53985); assay: Binding affinity to MCT1 (unknown origin)
T3 sequence (P53985 whole entry): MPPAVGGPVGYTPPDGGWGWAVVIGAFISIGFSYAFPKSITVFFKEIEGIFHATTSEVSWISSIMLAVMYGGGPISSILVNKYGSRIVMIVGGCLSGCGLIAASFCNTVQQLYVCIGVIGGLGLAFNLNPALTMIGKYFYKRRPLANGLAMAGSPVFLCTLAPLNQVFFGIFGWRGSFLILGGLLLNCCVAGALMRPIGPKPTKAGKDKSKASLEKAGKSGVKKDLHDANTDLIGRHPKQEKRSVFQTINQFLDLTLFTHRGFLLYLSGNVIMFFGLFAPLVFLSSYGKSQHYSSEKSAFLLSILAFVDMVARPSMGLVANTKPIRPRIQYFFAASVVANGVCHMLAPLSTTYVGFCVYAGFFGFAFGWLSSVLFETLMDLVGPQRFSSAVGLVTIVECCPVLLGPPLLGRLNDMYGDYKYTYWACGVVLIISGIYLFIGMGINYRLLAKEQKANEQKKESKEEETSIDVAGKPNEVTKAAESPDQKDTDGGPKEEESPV

[8] = Growth inhibition of human H1299 cells; assay type: functional, NCI-H1299
[9] = Cytotoxicity against human H1299 cells assessed as reduction in cell viability; assay type: functional, cell-based; details: NCI-H1299
Homo sapiens = species on record: Homo sapiens; assay: Inhibition of glucose transporter GLUT (unknown origin) by standard glucose uptake assay; details: concentration not given here
A549 = assay: Antitumor activity against human A549 cells in in-vivo xenograft model assessed as reduction in tumor volume at 10 mg/kg/day, ip; assay type: functional; details: route intraperitoneal

T1 sequence (P14618 whole entry): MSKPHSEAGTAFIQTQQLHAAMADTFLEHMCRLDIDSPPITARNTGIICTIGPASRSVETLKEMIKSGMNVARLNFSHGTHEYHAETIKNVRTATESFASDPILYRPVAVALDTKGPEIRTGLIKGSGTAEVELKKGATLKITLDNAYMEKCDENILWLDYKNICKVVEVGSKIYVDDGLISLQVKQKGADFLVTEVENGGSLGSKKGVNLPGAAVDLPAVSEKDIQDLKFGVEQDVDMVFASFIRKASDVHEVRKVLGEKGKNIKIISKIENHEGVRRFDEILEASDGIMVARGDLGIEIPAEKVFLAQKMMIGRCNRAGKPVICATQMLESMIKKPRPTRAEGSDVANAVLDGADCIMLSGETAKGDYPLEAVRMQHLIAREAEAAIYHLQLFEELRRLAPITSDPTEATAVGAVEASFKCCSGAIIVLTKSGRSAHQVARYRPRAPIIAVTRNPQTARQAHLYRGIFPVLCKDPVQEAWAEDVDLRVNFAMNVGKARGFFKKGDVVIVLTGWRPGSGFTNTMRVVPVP

## CS(=O)(=O)N1CCc2cc(S(=O)(=O)c3ccc4c(c3)OCCO4)ccc21
Pyruvate kinase PKM [1]
  AC50: 45 nM

## O=C1CC(c2ccc(N3CCOCC3)cc2)(c2ccsc2)NC(=O)C1Sc1ccccc1Cl (stereo not given)
[2]
  EC50: 250 nM

## O=C(/C=C/c1cccnc1)c1ccncc1
[3]
  IC50: 22900 nM

## NCCOCCOCCNC(=O)Cc1ccc(Nc2nc(NCc3ccc(F)cc3)nc(NCC3CCCCC3)n2)cc1
Alpha-enolase
  IC50: 576 nM

## O=C(/C=C/c1ccc2ccccc2n1)c1ccncc1
[3]
  IC50: 207 nM

## Cc1ccc(S(=O)(=O)NC[C@H]2O[C@@H](O)[C@H](NC(=O)/C=C/c3ccc(Cl)c(Cl)c3)[C@@H](O)[C@@H]2O)cc1
Hexokinase-2
  IC50: < 316 nM

## NCCOCCOCCOCCOCCOCCOCCCc1ccc(S(=O)(=O)NCc2ccc(C(=O)Nc3cccnc3)cc2)cc1
[4]
  IC50: > 40000 nM
[5]
  IC50: 7900 nM

## COc1ccccc1N1CCN(C(=O)c2ccc(NS(=O)(=O)c3cccc4cccnc34)cc2)CC1
Pyruvate kinase PKM [6]
  AC50: 45 nM
Pyruvate kinase PKM [1]
  AC50: 17 nM

## Cc1[nH]nc(C(F)(F)F)c1Cc1sc2c(c1C(=O)N1C[C@](C)(O)CO1)c(=O)n(C)c(=O)n2C(C)C [AZD3965]
[7]
  Kd: 1.6 nM

## O=C(Oc1cccc(F)c1OC(=O)c1cccc(O)c1)c1cccc(O)c1
[8]
  growth inhibition (GI): 41%
[9]
  IC50: 10000 nM
Homo sapiens
  inhibition: 93%
A549
  inhibition in vivo at 10 mg/kg/day: 70%
